What was measured:
smooth muscle myosin S1 = biological target: T1, smooth muscle myosin S1 (Gallus gallus, UniProt P10587); experiment: Inhibition of hydrolysis of ATP by smooth muscle myosin S1 fragments; assay type: biochemical; details: 100 μM compound
T1 construct: purchased Cytoskeleton #CS-MYS05
Outline: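 Smooth muscle myosin S1 fragment (0.7 mg/mL in PM12 buffer with 1 mM DTT) was mixed with compound and F-actin polymer prepared from cardiac actin, then 5 mM ATP working solution started the reaction at 37° C. for 20 min. Released Pi was measured with CytoPhos reagent at 650 nm against a standard curve, and inhibition was calculated relative to positive control wells.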

CYP3A4 = biological target: T2, CYP3A4 (Homo sapiens, UniProt P08684); experiment: CYP450 enzyme inhibition, human liver microsomes, CYP3A4; assay type: in vitro ADME
T2 construct: incubated with human liver microsomes and test compounds of different concentrations; from tissue; host or cells: human liver microsomes
Outline: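 Human liver microsomes were incubated with isoform-specific probe substrates and a range of test compound concentrations, with the reaction started by NADPH. Probe metabolites were quantified by LC-MS/MS to derive enzyme activity, and IC50 values were calculated per isoform.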

[1] = Pharmacokinetic experiment in mouse muscle tissue (tibialis anterior / plasma); assay type: in vivo, C57 mice; details: male, C57, tibialis anterior muscle / plasma, oral, intragastric 10 mg/kg, read-out: Ratio = Tibialis anterior Conc./Plasma Conc.
Description: (§1) 1. Experimental animals: Male C57 mice, 22-25 g, 6 mice/compound. Purchased from Chengdu Ddossy Experimental Animals Co., Ltd.
2. Experimental design: On the day of the experiment, C57 mice were randomly grouped according to their body weight. The animals were fasted with water available for 12 to 14 h one day before the administration and were fed 4 h after the administration. Administration was performed as per Table 10.1.

[2] = Pharmacokinetic experiment in mice; assay type: in vivo; details: male, C57, po; mouse plasma, i.g. (10 mg/kg)
Description: as §1
2. Experimental design: On the day of the experiment, 12 C57 mice were randomly grouped according to their body weight. The animals were fasted with water available for 12 to 14 h one day before the administration and were fed 4 h after the administration.
Before and after the administration, 0.06 mL of blood was taken from the orbit of the animals under isoflurane anesthesia and placed in an EDTAK2 centrifuge tube. The blood was centrifuged at 5000 rpm and 4° C. for 10 min to collect the plasma. The blood collection time points for the intravenous group and intragastric administration group were: 0 m, 5 m, 15 min, 30 min, 1 h, 2 h, 4 h, 7 h and 24 h. Before analysis and detection, all samples were stored at −80° C., and a quantitative analysis of samples was performed using LC-MS/MS.

T2 sequence (P08684 whole entry): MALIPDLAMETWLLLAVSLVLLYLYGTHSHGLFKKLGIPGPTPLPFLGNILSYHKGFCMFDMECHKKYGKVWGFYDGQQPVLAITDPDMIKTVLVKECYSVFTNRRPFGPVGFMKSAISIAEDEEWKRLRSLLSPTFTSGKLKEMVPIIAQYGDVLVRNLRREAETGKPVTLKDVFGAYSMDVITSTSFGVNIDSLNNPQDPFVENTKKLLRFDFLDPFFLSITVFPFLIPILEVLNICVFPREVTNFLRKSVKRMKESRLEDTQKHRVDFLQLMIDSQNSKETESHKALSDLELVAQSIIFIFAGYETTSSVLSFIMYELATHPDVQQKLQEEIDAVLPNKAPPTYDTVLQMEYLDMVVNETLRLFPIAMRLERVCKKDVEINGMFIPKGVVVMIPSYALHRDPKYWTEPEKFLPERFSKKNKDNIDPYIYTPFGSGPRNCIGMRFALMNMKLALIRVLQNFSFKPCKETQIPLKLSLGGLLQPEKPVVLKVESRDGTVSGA
T1 sequence (P10587 84-789 limits assumed): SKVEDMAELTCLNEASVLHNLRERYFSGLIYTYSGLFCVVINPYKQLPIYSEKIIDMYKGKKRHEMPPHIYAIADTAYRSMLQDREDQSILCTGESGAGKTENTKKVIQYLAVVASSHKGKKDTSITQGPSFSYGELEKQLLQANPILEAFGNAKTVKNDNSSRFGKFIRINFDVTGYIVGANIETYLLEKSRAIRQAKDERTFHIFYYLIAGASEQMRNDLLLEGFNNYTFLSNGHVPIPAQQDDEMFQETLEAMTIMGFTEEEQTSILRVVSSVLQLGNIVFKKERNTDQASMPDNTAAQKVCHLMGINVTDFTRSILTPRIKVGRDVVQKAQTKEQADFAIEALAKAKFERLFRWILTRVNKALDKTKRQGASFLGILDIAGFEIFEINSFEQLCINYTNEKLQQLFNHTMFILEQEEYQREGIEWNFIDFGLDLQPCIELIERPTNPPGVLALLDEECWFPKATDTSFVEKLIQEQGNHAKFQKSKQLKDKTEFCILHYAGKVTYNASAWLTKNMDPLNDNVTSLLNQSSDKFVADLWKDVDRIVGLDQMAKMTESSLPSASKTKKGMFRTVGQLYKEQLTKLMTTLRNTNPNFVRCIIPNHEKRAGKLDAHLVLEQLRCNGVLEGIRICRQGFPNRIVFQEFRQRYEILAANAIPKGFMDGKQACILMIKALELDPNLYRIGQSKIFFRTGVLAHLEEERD
T1 sequence (P02607 whole entry partner, the tested form may be a part): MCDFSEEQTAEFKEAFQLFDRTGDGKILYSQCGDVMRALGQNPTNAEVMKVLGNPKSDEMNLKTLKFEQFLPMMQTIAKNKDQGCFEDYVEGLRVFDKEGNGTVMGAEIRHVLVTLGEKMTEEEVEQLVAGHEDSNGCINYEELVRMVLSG

| Compound | inhibition at 100 µM (smooth muscle myosin S1) | IC50 (CYP3A4) | Kp at 6 h [1] | Kp at 24 h [1] | half-life [2] | AUC(0-t) [2] | Cmax [2] |
| --- | --- | --- | --- | --- | --- | --- | --- |
| O=C1CCc2ccc(Cn3nc(-c4cnc(OC5CC(F)(F)C5)nc4)ccc3=O)cc21 [Compound 141] | 3% | > 30 µM | 89.9 | 116 |  |  |  |
| O=C1CCc2ccc(Cn3nc(-c4cnc(OCC(F)F)nc4)ccc3=O)cc21 [Compound 131] | -9% | > 30 µM | 136 | 158 | 91.1 h |  |  |
| O=C1CCc2ccc(Cn3nc(-c4cnc(O[C@H]5CCOC5)nc4)ccc3=O)cc21 [Compound 150] | 4% |  | 82.2 | 140 | 40.7 h |  |  |
| O=C1CCc2ccc(Cn3nc(-c4cnc(O[C@@H]5CCOC5)nc4)ccc3=O)cc21 [Compound 149] | 2% | > 30 µM | 113 | 171 | 52.3 h |  |  |
| O=C1CCc2ccc(Cn3nc(-c4cnc(OCC(F)(F)F)nc4)ccc3=O)cc21 [Compound 88] |  | > 30 µM | 63.5 | 81.1 | 102 h | 2320 ng·h/mL | 324 ng/mL |
| O=c1ccc(-c2cnc(OCC(F)(F)F)nc2)nn1Cc1ccc2c(c1)CCC2 [Compound 57] | 3.3% |  |  |  |  |  |  |

The next lines start with the values.

| inhibition at 100 µM (smooth muscle myosin S1) | IC50 (CYP3A4) | Kp at 6 h [1] | Kp at 24 h [1] | half-life [2] | AUC(0-t) [2] | Cmax [2] | Compound |
| --- | --- | --- | --- | --- | --- | --- | --- |
| 17% | > 30 µM |  |  |  |  |  | O=C1CCc2ccc(Cn3nc(-c4cnc(OC5COCC5(F)F)nc4)ccc3=O)cc21 (centres unmarked) [Compound 164] |
| 2% | > 30 µM |  |  |  |  |  | O=C1CCc2ccc(Cn3nc(-c4cnc(Oc5cncc(Cl)c5)nc4)ccc3=O)cc21 [Compound 151] |
| 12% | > 30 µM |  |  |  |  |  | O=C1CCc2c(F)cc(Cn3nc(-c4cnc(O[C@H]5CCOC5)nc4)ccc3=O)cc21 [Compound 165] |
| 13% | > 30 µM |  |  |  |  |  | N#CC1(COc2ncc(-c3ccc(=O)n(Cc4ccc5c(c4)C(=O)CC5)n3)cn2)CC1 [Compound 158] |
| 17% | > 30 µM |  |  |  |  |  | O=C1CCc2c(F)cc(Cn3nc(-c4cnc(OCC(F)F)nc4)ccc3=O)cc21 [Compound 167] |
